Test results as given in article PMC7864192 (Cancers, 2021).
Where “and” joins values, the source holds several entries; their conditions need not be identical. Equal entries are not always repeated. Where two headings read alike, the source gives them in different places.

How the values were obtained:
[1] = tested on: MCF-7 human breast cancer cell line; test: Cell viability drug screen (72 h), MCF-7 positive control for anti-hormonal therapies; type: cell-based; conditions: monotherapy
Method: (§1) KGN was cultured in conditions identical to AGCT-patient-derived cell lines.
(§2) Cell lines were seeded at a density of 500 cells/well in 40 uL in 384-well plates (Corning, NY, USA) with the Multidrop™ cell dispenser (Thermo Fischer Scientific, Waltham, MA, USA) and sealed with Breathe-Easy® membrane (Sigma-Aldrich, St. Louis, MO, USA) to prevent evaporation. The SVOG-3e line was seeded at 1000 cells/well due to contact-dependent growth requirements. For each cell line, three biological repeats and two technical repeats each were performed in order to ensure the validity of the drug screens. […] Subsequently, 11 drugs and 12 drug combinations were dispensed and all wells (excluding blanks and non-DMSO control wells) were normalized to 1% DMSO using the HP Tecan D300e Digital Dispenser (Hewlett-Packard, Palo Alto, CA, USA). […] After incubation, luminescence excitation was assessed in the Spectramax reader (Molecular Devices, San Jose, CA, USA) (top read, luminescence excitation at 500 nm) and raw data were processed in Microsoft Excel to subtract background luminescence. […]
(§3) Overall cell survival (in %) was plotted against the drug concentration range of each drug (in log10[μM]) using GraphPad Prism 8.3.1. […] The IC50 values were calculated based on the Chou–Talalay method using Compusyn software [55]. […]

[2] = tested on: KGN cells (AGCT cell line); test: Cell viability drug screen (Cell Titer Glo 2.0, 72 h), mono- and combination therapy, KGN; conditions: for IC50: Homo sapiens, read-out: IC50 in monotherapy
Method: as §1
(§4) Cell lines were seeded at a density of 500 cells/well in 40 uL in 384-well plates (Corning, NY, USA) with the Multidrop™ cell dispenser (Thermo Fischer Scientific, Waltham, MA, USA) and sealed with Breathe-Easy® membrane (Sigma-Aldrich, St. Louis, MO, USA) to prevent evaporation. The SVOG-3e line was seeded at 1000 cells/well due to contact-dependent growth requirements. For each cell line, three biological repeats and two technical repeats each were performed in order to ensure the validity of the drug screens. […] Subsequently, 11 drugs and 12 drug combinations were dispensed and all wells (excluding blanks and non-DMSO control wells) were normalized to 1% DMSO using the HP Tecan D300e Digital Dispenser (Hewlett-Packard, Palo Alto, CA, USA). All drugs were applied in linear concentration ranges (Table 2), including 16 data points to enable combination drug testing at constant ratios (Table 3). Next, the plates were covered with the Breathe-Easy membrane and incubated. After 72 h, the Multidrop dispensed 15 uL per well of Cell Titer Glo 2.0 (Thermo Fischer Scientific, Waltham, MA, USA) and plates were incubated in the dark for 10 min. After incubation, luminescence excitation was assessed in the Spectramax reader (Molecular Devices, San Jose, CA, USA) (top read, luminescence excitation at 500 nm) and raw data were processed in Microsoft Excel to subtract background luminescence. […] Screens with a Z-factor value of >0.5 were used for further analysis.
(§5) Overall cell survival (in %) was plotted against the drug concentration range of each drug (in log10[μM]) using GraphPad Prism 8.3.1. Values that exceeded 100% survival (within +20% biological deviation) were normalized to 100% survival. Similarly, values below 0% cell survival (within −20% biological deviation) were normalized to 0% survival. Values exceeding this deviation were excluded. Dose–response curves were obtained using the model “log(inhibitor) vs. variable slope (normalized response)” to fit the dose–response curves and R^2 values were used to indicate how well the model fit the data (Supplementary Materials Figures S4 and S5). […] The IC50 values were calculated based on the Chou–Talalay method using Compusyn software [55]. For anti-hormonal treatment, mostly provided as maintenance therapy, we used IC10 values in addition to the IC50.

[3] = tested on: GCPA028 T1.II patient-derived AGCT cell line; test: Cell viability drug screen (Cell Titer Glo 2.0, 72 h), mono- and combination therapy, GCPA028; conditions: for IC50: Homo sapiens, read-out: IC50 in monotherapy
Method: as §4
(§6) Overall cell survival (in %) was plotted against the drug concentration range of each drug (in log10[μM]) using GraphPad Prism 8.3.1. Values that exceeded 100% survival (within +20% biological deviation) were normalized to 100% survival. Similarly, values below 0% cell survival (within −20% biological deviation) were normalized to 0% survival. Values exceeding this deviation were excluded. Dose–response curves were obtained using the model “log(inhibitor) vs. variable slope (normalized response)” to fit the dose–response curves and R^2 values were used to indicate how well the model fit the data (Supplementary Materials Figures S4 and S5). […] The maximum plasma concentration (Cmax) and the plasma concentration at steady state (Css) were used as toxicity thresholds. The Cmax was utilized for drugs in which short, high-dosage time courses are required, while the Css was used for maintenance therapy regimes such as anti-hormonal treatment. […] The IC50 values were calculated based on the Chou–Talalay method using Compusyn software [55]. For anti-hormonal treatment, mostly provided as maintenance therapy, we used IC10 values in addition to the IC50.
(§7) In addition to the 11 monotherapies, 12 drug combinations were tested (Table 3) simultaneously with the individual drug treatments in the same 384-well plate. […] Synergy was evaluated using the mass action law, a systematic analysis assessing dose–response dynamics in a cost-effective manner [56, 57]. The combination index (CI) was used to indicate antagonistic (CI > 1) additive (CI = 1) and synergistic (CI < 1) effects [55].

[4] = tested on: GCPA007 T2.I patient-derived AGCT cell line; test: Cell viability drug screen (Cell Titer Glo 2.0, 72 h), mono- and combination therapy, GCPA007T2.I; conditions: for IC50: Homo sapiens, 72 h, read-out: IC50 in monotherapy; for DRI (Fa=0,5): GCPA007T2I
Method: as §4, §6, §7

[5] = tested on: GCPA096 T1.I patient-derived AGCT cell line; test: Cell viability drug screen (Cell Titer Glo 2.0, 72 h), mono- and combination therapy, GCPA096T1.I; conditions: for IC50: Homo sapiens, read-out: IC50 in monotherapy; for DRI (Fa=0,5): GCPA096T1I
Method: (§8) Cell lines were seeded at a density of 500 cells/well in 40 uL in 384-well plates (Corning, NY, USA) with the Multidrop™ cell dispenser (Thermo Fischer Scientific, Waltham, MA, USA) and sealed with Breathe-Easy® membrane (Sigma-Aldrich, St. Louis, MO, USA) to prevent evaporation. […] For each cell line, three biological repeats and two technical repeats each were performed in order to ensure the validity of the drug screens. […] Subsequently, 11 drugs and 12 drug combinations were dispensed and all wells (excluding blanks and non-DMSO control wells) were normalized to 1% DMSO using the HP Tecan D300e Digital Dispenser (Hewlett-Packard, Palo Alto, CA, USA). […] Next, the plates were covered with the Breathe-Easy membrane and incubated. After 72 h, the Multidrop dispensed 15 uL per well of Cell Titer Glo 2.0 (Thermo Fischer Scientific, Waltham, MA, USA) and plates were incubated in the dark for 10 min. After incubation, luminescence excitation was assessed in the Spectramax reader (Molecular Devices, San Jose, CA, USA) (top read, luminescence excitation at 500 nm) and raw data were processed in Microsoft Excel to subtract background luminescence. The Z-factor, a mathematical method used to quantify the quality of a drug screen based on the calculation of the separation band between the values of the positive and negative controls, was utilized to assess the quality of drug screens [54]. Screens with a Z-factor value of >0.5 were used for further analysis.
as §5, §7

[6] = tested on: GCPA096 T1.V patient-derived AGCT cell line; test: Cell viability drug screen (Cell Titer Glo 2.0, 72 h), mono- and combination therapy, GCPA096T1.V; conditions: for IC50: Homo sapiens, 72 h, read-out: IC50 in monotherapy; for DRI (Fa=0,5): GCPA096T1V
Method: as §4, §6, §7

[7] = tested on: GCPA113 T1.I patient-derived AGCT cell line; test: Cell viability drug screen (Cell Titer Glo 2.0, 72 h), mono- and combination therapy, GCPA113T1.I; conditions: for IC50: Homo sapiens; for DRI (Fa=0,5): GCPA113T1I
Method: as §8, §5, §7

[8] = tested on: GCPA007 T2.IV patient-derived AGCT cell line; test: Cell viability drug screen (Cell Titer Glo 2.0, 72 h), mono- and combination therapy, GCPA007T2.IV; conditions: for IC50: Homo sapiens, read-out: IC50 in monotherapy; for DRI (Fa=0,5): GCPA007T2IV
Method: as §8, §5, §7

[9] = tested on: GCPA096 T1.II patient-derived AGCT cell line; test: Cell viability drug screen (Cell Titer Glo 2.0, 72 h), mono- and combination therapy, GCPA096T1.II; conditions: for IC50: Homo sapiens, 72 h, read-out: IC50 in monotherapy; for DRI (Fa=0,5): GCPA096T1II
Method: as §4, §6, §7

[10] = tested on: GCPA096 T1.XV patient-derived AGCT cell line; test: Cell viability drug screen (Cell Titer Glo 2.0, 72 h), mono- and combination therapy, GCPA096T1.XV; conditions: for IC50: Homo sapiens, 72 h, read-out: IC50 in monotherapy; for DRI (Fa=0,5): GCPA096T1XV
Method: (§9) Cell lines were seeded at a density of 500 cells/well in 40 uL in 384-well plates (Corning, NY, USA) with the Multidrop™ cell dispenser (Thermo Fischer Scientific, Waltham, MA, USA) and sealed with Breathe-Easy® membrane (Sigma-Aldrich, St. Louis, MO, USA) to prevent evaporation. The SVOG-3e line was seeded at 1000 cells/well due to contact-dependent growth requirements. For each cell line, three biological repeats and two technical repeats each were performed in order to ensure the validity of the drug screens. […] Subsequently, 11 drugs and 12 drug combinations were dispensed and all wells (excluding blanks and non-DMSO control wells) were normalized to 1% DMSO using the HP Tecan D300e Digital Dispenser (Hewlett-Packard, Palo Alto, CA, USA). All drugs were applied in linear concentration ranges (Table 2), including 16 data points to enable combination drug testing at constant ratios (Table 3). Next, the plates were covered with the Breathe-Easy membrane and incubated. After 72 h, the Multidrop dispensed 15 uL per well of Cell Titer Glo 2.0 (Thermo Fischer Scientific, Waltham, MA, USA) and plates were incubated in the dark for 10 min. After incubation, luminescence excitation was assessed in the Spectramax reader (Molecular Devices, San Jose, CA, USA) (top read, luminescence excitation at 500 nm) and raw data were processed in Microsoft Excel to subtract background luminescence. The Z-factor, a mathematical method used to quantify the quality of a drug screen based on the calculation of the separation band between the values of the positive and negative controls, was utilized to assess the quality of drug screens [54]. Screens with a Z-factor value of >0.5 were used for further analysis.
as §6, §7

[11] = tested on: GCPA108 T3.IV patient-derived AGCT cell line; test: Cell viability drug screen (Cell Titer Glo 2.0, 72 h), mono- and combination therapy, GCPA108T3.IV; conditions: for IC50: Homo sapiens, read-out: IC50 in monotherapy; for DRI (Fa=0,5): GCPA108T3IV
Method: as §9, §6, §7

[12] = tested on: GCPA113 T1.II patient-derived AGCT cell line; test: Cell viability drug screen (Cell Titer Glo 2.0, 72 h), mono- and combination therapy, GCPA113T1.II; conditions: for IC50: Homo sapiens; for DRI (Fa=0,5): GCPA113T1II
Method: as §8, §5, §7

[13] = tested on: GCPA096 T1.XVI patient-derived AGCT cell line; test: Cell viability drug screen (Cell Titer Glo 2.0, 72 h), mono- and combination therapy, GCPA096T1.XVI; conditions: for IC50: Homo sapiens, read-out: IC50 in monotherapy; for DRI (Fa=0,5): GCPA096T1XVI
Method: as §4, §6, §7

[14] = tested on: GCPA113 T1.III patient-derived AGCT cell line; test: Cell viability drug screen (Cell Titer Glo 2.0, 72 h), mono- and combination therapy, GCPA113T1.III; conditions: for IC50: Homo sapiens; for DRI (Fa=0,5): GCPA113T1III
Method: as §8, §5, §7

[15] = tested on: SVOG-3e immortalized human granulosa cell line; test: Cell viability drug screen (72 h), SVOG-3e control; type: cell-based; conditions: monotherapy
Method: as §1, §2, §3

AGCT cell lines = test: Cell viability drug screen (72 h), summary over AGCT cell lines (12 patient-derived, with or without KGN); type: cell-based, human; conditions: Homo sapiens; median over AGCT cell lines; read-out: median IC50 in monotherapy
[16] = cited from earlier work
[17] = 72 h, read-out: IC50 in monotherapy
[18] = drug within Carbo+Pacli+Alpelisib
[19] = drug within Everolimus+Alpelisib
[20] = in combination Carbo+Pacli+Alpelisib
[21] = in combination Everolimus+Alpelisib

## CC(C)(C#N)c1cc(Cn2cncn2)cc(C(C)(C)C#N)c1 [Anastrozole]
[1]
  effect on cell viability at tolerable concentrations: did not decrease cell viability at tolerable concentrations
[2]; 72 h
  IC50: > 200 µM
[3]; 72 h
  IC50: > 200 µM
[4]
  IC50: > 200 µM
[5]; 72 h
  IC50: > 200 µM
[6]
  IC50: > 200 µM
[7]; [17]
  IC50: > 200 µM
[8]; 72 h
  IC50: > 200 µM
[9]
  IC50: > 200 µM
[10]
  IC50: > 200 µM
[11]; 72 h
  IC50: > 200 µM
[12]; [17]
  IC50: > 200 µM
[13]; 72 h
  IC50: > 200 µM
[14]; [17]
  IC50: > 200 µM

## Cc1nc(NC(=O)N2CCC[C@H]2C(N)=O)sc1-c1ccnc(C(C)(C)C(F)(F)F)c1 [Alpelisib]
[15]
  IC50: 7.55 µM
AGCT cell lines
  IC50: 15 µM
[16]; human maximum or steady state plasma concentration, log10 of the uM value
  Cmax/Css plasma (Log 10): 0.84 Log 10
[16]; human plasma Cmax/Css, log10 of uM value, from phase I/II clinical trials
  Cmax/Css plasma (Log 10): 0.84 Log 10
[16]; human plasma maximum/steady state concentration, ref phase I/II clinical trials
  Cmax/Css plasma (Log 10): 0.84 Log 10
[16]; human plasma, maximum or steady state concentration, log10 of uM value
  Cmax/Css plasma (Log 10): 0.84
[16]; human plasma, log10 of uM, phase I/II trials
  Cmax/Css plasma (Log 10): 0.84
[16]; read-out: Cmax (maximum drug concentration achieved in plasma), human plasma, phase I/II studies
  Cmax: 6.9 µM and 6.92 µM
[16]; read-out: Cmax/Css plasma, human maximum or steady state plasma concentration
  Cmax: 6.92 µM
[16]; read-out: Cmax/Css plasma, human plasma Cmax/Css, from phase I/II clinical trials
  Cmax: 6.92 µM
[16]; read-out: Cmax/Css plasma, human plasma maximum/steady state concentration, ref phase I/II clinical trials
  Cmax: 6.92 µM
[16]; read-out: Cmax/Css plasma, human plasma, maximum or steady state concentration
  Cmax: 6.92 µM
[16]; read-out: Cmax/Css plasma, human plasma, phase I/II trials
  Cmax: 6.92 µM
[2]; 72 h
  IC50: 24.4 µM
[2]
  IC50: 24.4 µM
[2]; [18]
  DRI (Fa=0,5): 10.9278
[2]; [19]
  DRI (Fa=0,5): 1.384
[3]; GCPA028, in combination Carbo+Pacli+Alpelisib
  DRI (Fa=0,5): 4.95
[3]; GCPA028, in combination Everolimus+Alpelisib
  DRI (Fa=0,5): 0.99
[3]; 72 h
  IC50: 22.8 µM
[3]
  IC50: 22.8 µM
[4]
  IC50: 22 µM
[4]; in Carbo+Pacli+Alpelisib (10:1:2)
  DRI (Fa=0,5): 10.78
[4]; in Everolimus+Alpelisib (1:2)
  DRI (Fa=0,5): 1.24
[5]; [20]
  DRI (Fa=0,5): 1.7
[5]; [21]
  DRI (Fa=0,5): 1.24
[5]; 72 h
  IC50: 11.7 µM
[5]
  IC50: 11.7 µM
[6]; [18]
  DRI (Fa=0,5): 2.2
[6]; [19]
  DRI (Fa=0,5): 1.57
[6]
  IC50: 15 µM
[7]; in Carbo+Pacli+Alpelisib
  DRI (Fa=0,5): 3.06
[7]; in Everolimus+Alpelisib
  DRI (Fa=0,5): 0.95
[7]
  IC50: 9.59 µM
[7]; [17]
  IC50: 9.59 µM
[7]; read-out: IC50 in monotherapy
  IC50: 9.59 µM
[8]; [20]
  DRI (Fa=0,5): 4.44
[8]; [21]
  DRI (Fa=0,5): 10.73
[8]; 72 h
  IC50: 26.7 µM
[8]
  IC50: 26.7 µM
[9]; [18]
  DRI (Fa=0,5): 2.15
[9]; [19]
  DRI (Fa=0,5): 1.5
[9]
  IC50: 12.6 µM
[10]; [18]
  DRI (Fa=0,5): 2.12
[10]; [19]
  DRI (Fa=0,5): 1.36
[10]
  IC50: 14.6 µM
[11]; in Carbo+Pacli+Alpelisib
  DRI (Fa=0,5): 13.6802
[11]; in Everolimus+Alpelisib
  DRI (Fa=0,5): 5.603
[11]; 72 h
  IC50: 53.9 µM
[11]
  IC50: 53.9 µM
[12]; [18]
  DRI (Fa=0,5): 1.81
[12]; [19]
  DRI (Fa=0,5): 1.09
[12]
  IC50: 21.4 µM
[12]; [17]
  IC50: 21.4 µM
[12]; read-out: IC50 in monotherapy
  IC50: 21.4 µM
[13]; in Carbo+Pacli+Alpelisib
  DRI (Fa=0,5): 1.95
[13]; in Everolimus+Alpelisib
  DRI (Fa=0,5): 1.7
[13]; 72 h
  IC50: 23.5 µM
[13]
  IC50: 23.5 µM
[14]; [18]
  DRI (Fa=0,5): 5.76
[14]; [19]
  DRI (Fa=0,5): 1.89
[14]
  IC50: 11.5 µM
[14]; [17]
  IC50: 11.5 µM
[14]; read-out: IC50 in monotherapy
  IC50: 11.5 µM
